# Results reported in ChEMBL document CHEMBL1153084, “Synthesis and HMG-CoA reductase inhibition of 2-cyclopropyl-4-thiophenyl-quinoline mevalonolactones” (Bioorg Med Chem, 2009).
# Molecular target: T1, 3-hydroxy-3-methylglutaryl-coenzyme A reductase (Homo sapiens, UniProt P04035)
# T1 sequence (P04035 whole entry): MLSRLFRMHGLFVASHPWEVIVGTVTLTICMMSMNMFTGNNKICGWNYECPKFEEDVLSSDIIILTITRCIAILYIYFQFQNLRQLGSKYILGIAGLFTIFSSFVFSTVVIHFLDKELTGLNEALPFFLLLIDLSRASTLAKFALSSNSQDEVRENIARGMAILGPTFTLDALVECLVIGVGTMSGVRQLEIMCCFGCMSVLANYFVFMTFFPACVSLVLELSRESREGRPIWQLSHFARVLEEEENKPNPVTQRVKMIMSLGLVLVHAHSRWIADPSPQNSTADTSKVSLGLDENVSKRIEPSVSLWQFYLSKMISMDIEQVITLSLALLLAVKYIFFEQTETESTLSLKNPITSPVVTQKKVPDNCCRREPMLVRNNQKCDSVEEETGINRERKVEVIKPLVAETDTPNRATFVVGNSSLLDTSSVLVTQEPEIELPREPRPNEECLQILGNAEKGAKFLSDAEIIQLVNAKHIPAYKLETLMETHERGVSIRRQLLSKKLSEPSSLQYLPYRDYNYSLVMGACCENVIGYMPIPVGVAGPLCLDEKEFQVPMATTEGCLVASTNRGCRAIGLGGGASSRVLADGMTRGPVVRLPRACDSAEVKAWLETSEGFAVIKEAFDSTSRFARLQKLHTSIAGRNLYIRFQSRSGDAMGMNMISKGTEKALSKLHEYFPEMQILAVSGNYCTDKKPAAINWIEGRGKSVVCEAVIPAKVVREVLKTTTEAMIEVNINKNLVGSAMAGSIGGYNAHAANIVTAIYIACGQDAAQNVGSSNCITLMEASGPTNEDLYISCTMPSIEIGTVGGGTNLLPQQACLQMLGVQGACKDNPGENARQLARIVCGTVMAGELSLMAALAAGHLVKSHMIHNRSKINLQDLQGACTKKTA
# Assay: Inhibition of HMG CoA reductase by spectrophotometry
row,IC50,SMILES
1,45.7 µM,O=C1C[C@H](O)C[C@@H](/C=C/c2c(C3CC3)nc3cc(Sc4ccc(F)cc4)c(F)cc3c2Sc2ccc(F)cc2)O1
2,41.3 µM,COc1ccc2nc(C3CC3)c(/C=C/[C@@H]3C[C@@H](O)CC(=O)O3)c(Sc3ccc(C(C)C)cc3)c2c1
3,5.61 µM,COc1cccc(Sc2c(/C=C/[C@@H]3C[C@@H](O)CC(=O)O3)c(C3CC3)nc3ccc(F)cc23)c1
4,360 µM,COc1cccc(Sc2c(/C=C/[C@@H]3C[C@@H](O)CC(=O)O3)c(C3CC3)nc3cc(F)c(F)cc23)c1
5,759 µM,CC(C)c1ccc(Sc2c(/C=C/[C@@H]3C[C@@H](O)CC(=O)O3)c(C3CC3)nc3cc(F)c(F)cc23)cc1
6,62.4 µM,O=C1C[C@H](O)C[C@@H](/C=C/c2c(C3CC3)nc3ccccc3c2Sc2ccc(F)cc2)O1
7,11.3 µM,CC(C)c1ccc(Sc2c(/C=C/[C@@H]3C[C@@H](O)CC(=O)O3)c(C3CC3)nc3ccccc23)cc1
8,25.7 µM,COc1ccc2nc(C3CC3)c(/C=C/[C@@H]3C[C@@H](O)CC(=O)O3)c(Sc3ccc(F)cc3)c2c1
9,6.93 µM,O=C1C[C@H](O)C[C@@H](/C=C/c2c(C3CC3)nc3ccc(F)cc3c2Sc2ccc(F)cc2)O1
10,7.1 µM,COc1cccc(Sc2cc3nc(C4CC4)c(/C=C/[C@@H]4C[C@@H](O)CC(=O)O4)c(Sc4cccc(OC)c4)c3cc2F)c1
11,8.9 µM,O=C(O)C[C@H](O)C[C@H](O)/C=C/c1c(C2CC2)nc2ccccc2c1-c1ccc(F)cc1 [PITAVASTATIN CALCIUM]
